# Measured values taken from PMC9411704, “Assessment of the Carcinogenic Potential of Pretomanid in Transgenic Tg.rasH2 Mice” (International Journal of Toxicology, 2022).
# Entries after “also recorded” stand apart in the source; their conditions may differ.
# Key:
# [1] = tested on: Salmonella typhimurium TA100; experiment: Bacterial reverse mutation (Ames) assay, plate incorporation; assay type: cell-based
# Procedure: (§1) Pretomanid and metabolite M50 were evaluated over a range of concentrations, with and without an added metabolic activation system, in five tester strains: Salmonella typhimurium histidine auxotrophs TA98, TA100, TA1535, and TA1537 [9] and the Escherichia coli tryptophan auxotroph WP2uvrA. S. typhimurium strains were received from Dr. Bruce Ames, Department of Biochemistry, University of California (Berkeley, CA). The E. coli strain was received from The National Collection of Industrial Bacteria, Torrey Research Station, Aberdeen, Scotland (United Kingdom). The metabolic activation system was a liver homogenate (S9) mix. The S9 component was prepared from male Sprague-Dawley rats that had been injected (intraperitoneally) with Aroclor^TM 1254 at 500 mg/kg, 5 days before sacrifice. The S9 mix was prepared immediately before use and contained 10% S9, 5 mM glucose-6-phosphate, 4 mM β-nicotinamide adenine dinucleotide phosphate, 8 mM MgCl2 and 33 mM KCl in a 100 mM phosphate buffer at pH 7.4. Pretomanid was tested at 0.05 to 5000 μg/plate. Metabolite M50 was tested at 78 to 2500 μg/plate. A negative (solvent) control culture and appropriate positive control cultures were included in each assay.
# (§2) Bacteria were exposed to test materials by the plate incorporation method originally described by Ames et al and updated by Maron and Ames. Bottom agar was Vogel-Bonner minimal medium E [12] with 1.5% (w/v) agar, and the top Agar was 0.7% (w/v) agar and 0.5% (w/v) NaCl. After incubation, cultures were evaluated using a dissecting microscope for precipitation or cytotoxicity, and revertant colonies were counted. The mean numbers of revertant colonies in various cultures were compared to reach conclusions about assay validity and mutagenic potential. For the test article to be evaluated positive, it must cause a dose-related increase in the mean revertants per plate of at least one tester strain with a minimum of two increasing concentrations of test article.
# [2] = tested on: Salmonella typhimurium TA1535; experiment: as above; assay type: cell-based
# Procedure: as §1, §2
# [3] = tested on: Salmonella typhimurium TA1537; experiment: as above; assay type: cell-based
# Procedure: as §1, §2
# [4] = tested on: Salmonella typhimurium TA98; experiment: as above; assay type: cell-based
# Procedure: as §1, §2
# Escherichia coli WP2uvrA = experiment: as above
# Procedure: as §1, §2
# [5] = tested on: Salmonella typhimurium TA98, TA100, TA1535, TA1537 and Escherichia coli WP2uvrA; experiment: Bacterial reverse mutation (Ames) assay, overall over five tester strains; assay type: cell-based; conditions: up to 2500 μg/plate
# Procedure: as §1, §2
# [6] = Toxicokinetic assessment in wild-type CByB6F1 mice (Day 14); assay type: in vivo; conditions: for Mouse M50 AUC0-24 as multiple of estimated human M50 AUC0-24: highest dose, human 200 mg/day
# Procedure: TK animals were included for the vehicle control (n = 4 sex) and pretomanid-treated groups (n = 10 sex/group). The TK cohort animals were dosed by oral gavage once daily for 14 consecutive days.
# Toxicokinetic blood samples (300 μL for males and 250 μL for females) were collected in K3EDTA tubes after 14 doses from the TK cohort via retro-orbital bleeding under 70% CO2/30% O2 anesthesia. On Day 14, control mice were bled once 2 hours after dosing. On Day 14 and 15, Pretomanid-treated mice were bled predose, 0.5, 1, 3, 6, and 24 hours post dose. TK animals were euthanized after their final blood collection.
# Collected blood was stored on wet ice until the samples were processed to plasma. Blood samples were centrifuged at 4±2°C and 8000 g for 5 minutes. Plasma was snap frozen in liquid nitrogen and stored in a deep freezer (≤−60°C) within 60 minutes of bleeding the TK animals.
# Pretomanid and the M50 metabolite were quantified in mouse plasma by liquid chromatography-tandem mass spectrometry (LC-MS/MS) after protein precipitation. Aliquots of 25 µL of plasma were spiked with internal standards (PA-824-d5 or morphine) and proteins were precipitated in 1% formic acid in acetonitrile. A partial supernatant from each sample was transferred to a clean plate and diluted in acetonitrile/water (40:60) for pretomanid and deionized water for M50. Supernatant was analyzed for pretomanid or M50 using validated LC-MS/MS methods with a linear range of 20 to 10,000 ng/mL for pretomanid and 10 to 5,000 ng/mL for M50 (methods validated at Alliance Pharma, Malvern PA).
# Sample collection time and plasma concentration data were analyzed to derive TK parameters by standard model independent methods based on the mean plasma concentration-time data for each dose group. The TK analyses of the plasma concentration profiles were performed using non-compartmental analysis in Phoenix WinNonlin Professional 7.0 (Certara, L.P., St. Louis, MO, USA). Concentration values below the lower limit of quantitation were treated as zeros for analysis purposes.
smiles,measurement,setting,value
O=[N+]([O-])c1cn2c(n1)OC[C@@H](O)C2 [M50],Mean Number of Revertants/Plate,"[1]; TA100 +S9, 78 μg/plate",132 Revertants/Plate
same,Mean Number of Revertants/Plate,"[1]; TA100 +S9, 156 μg/plate",125 Revertants/Plate
same,Mean Number of Revertants/Plate,"[1]; TA100 +S9, 313 μg/plate",252 Revertants/Plate
same,Mean Number of Revertants/Plate,"[1]; TA100 +S9, 625 μg/plate",312 Revertants/Plate
same,Mean Number of Revertants/Plate,"[1]; TA100 +S9, 1250 μg/plate",666 Revertants/Plate
same,Mean Number of Revertants/Plate,"[1]; TA100 +S9, 2500 μg/plate",758 Revertants/Plate
same,Change in revertant colonies,"[1]; TA100, presence and absence of S9",significant increases
same,Mean Number of Revertants/Plate,"[1]; TA100 −S9, 78 μg/plate",120 Revertants/Plate
same,Mean Number of Revertants/Plate,"[1]; TA100 −S9, 156 μg/plate",135 Revertants/Plate
same,Mean Number of Revertants/Plate,"[1]; TA100 −S9, 313 μg/plate",203 Revertants/Plate
same,Mean Number of Revertants/Plate,"[1]; TA100 −S9, 625 μg/plate",294 Revertants/Plate
same,Mean Number of Revertants/Plate,"[1]; TA100 −S9, 1250 μg/plate",588 Revertants/Plate
same,Mean Number of Revertants/Plate,"[1]; TA100 −S9, 2500 μg/plate",868 Revertants/Plate
same,Mean Number of Revertants/Plate,"[2]; TA1535 +S9, 78 μg/plate",12 Revertants/Plate
same,Mean Number of Revertants/Plate,"[2]; TA1535 +S9, 156 μg/plate",15 Revertants/Plate
same,Mean Number of Revertants/Plate,"[2]; TA1535 +S9, 313 μg/plate",31 Revertants/Plate
same,Mean Number of Revertants/Plate,"[2]; TA1535 +S9, 625 μg/plate",42 Revertants/Plate
same,Mean Number of Revertants/Plate,"[2]; TA1535 +S9, 1250 μg/plate",67 Revertants/Plate
same,Mean Number of Revertants/Plate,"[2]; TA1535 +S9, 2500 μg/plate",81 Revertants/Plate
same,Change in revertant colonies,"[2]; TA1535, presence and absence of S9",significant increases
same,Mean Number of Revertants/Plate,"[2]; TA1535 −S9, 78 μg/plate",20 Revertants/Plate
same,Mean Number of Revertants/Plate,"[2]; TA1535 −S9, 156 μg/plate",16 Revertants/Plate
same,Mean Number of Revertants/Plate,"[2]; TA1535 −S9, 313 μg/plate",19 Revertants/Plate
same,Mean Number of Revertants/Plate,"[2]; TA1535 −S9, 625 μg/plate",24 Revertants/Plate
same,Mean Number of Revertants/Plate,"[2]; TA1535 −S9, 1250 μg/plate",43 Revertants/Plate
same,Mean Number of Revertants/Plate,"[2]; TA1535 −S9, 2500 μg/plate",60 Revertants/Plate
same,Mean Number of Revertants/Plate,"[3]; TA1537 +S9, 78 μg/plate",9 Revertants/Plate
same,Mean Number of Revertants/Plate,"[3]; TA1537 +S9, 156 μg/plate",12 Revertants/Plate
same,Mean Number of Revertants/Plate,"[3]; TA1537 +S9, 313 μg/plate",8 Revertants/Plate
same,Mean Number of Revertants/Plate,"[3]; TA1537 +S9, 625 μg/plate",14 Revertants/Plate
same,Mean Number of Revertants/Plate,"[3]; TA1537 +S9, 1250 μg/plate",20 Revertants/Plate
same,Mean Number of Revertants/Plate,"[3]; TA1537 +S9, 2500 μg/plate",11 Revertants/Plate
same,Change in revertant colonies,"[3]; TA1537, absence of S9",significant increases
same,Mean Number of Revertants/Plate,"[3]; TA1537 −S9, 78 μg/plate",8 Revertants/Plate
same,Mean Number of Revertants/Plate,"[3]; TA1537 −S9, 156 μg/plate",13 Revertants/Plate
same,Mean Number of Revertants/Plate,"[3]; TA1537 −S9, 313 μg/plate",7 Revertants/Plate
same,Mean Number of Revertants/Plate,"[3]; TA1537 −S9, 625 μg/plate",13 Revertants/Plate
same,Mean Number of Revertants/Plate,"[3]; TA1537 −S9, 1250 μg/plate",10 Revertants/Plate
same,Mean Number of Revertants/Plate,"[3]; TA1537 −S9, 2500 μg/plate",18 Revertants/Plate
same,Mean Number of Revertants/Plate,"[4]; TA98 +S9, 78 μg/plate",18 Revertants/Plate
same,Mean Number of Revertants/Plate,"[4]; TA98 +S9, 156 μg/plate",19 Revertants/Plate
same,Mean Number of Revertants/Plate,"[4]; TA98 +S9, 313 μg/plate",22 Revertants/Plate
same,Mean Number of Revertants/Plate,"[4]; TA98 +S9, 625 μg/plate",25 Revertants/Plate
same,Mean Number of Revertants/Plate,"[4]; TA98 +S9, 1250 μg/plate",24 Revertants/Plate
same,Mean Number of Revertants/Plate,"[4]; TA98 +S9, 2500 μg/plate",38 Revertants/Plate
same,Change in revertant colonies,"[4]; TA98, presence of S9",significant increases
same,Mean Number of Revertants/Plate,"[4]; TA98 −S9, 78 μg/plate",13 Revertants/Plate
same,Mean Number of Revertants/Plate,"[4]; TA98 −S9, 156 μg/plate",16 Revertants/Plate
same,Mean Number of Revertants/Plate,"[4]; TA98 −S9, 313 μg/plate",14 Revertants/Plate
same,Mean Number of Revertants/Plate,"[4]; TA98 −S9, 625 μg/plate",17 Revertants/Plate
same,Mean Number of Revertants/Plate,"[4]; TA98 −S9, 1250 μg/plate",21 Revertants/Plate
same,Mean Number of Revertants/Plate,"[4]; TA98 −S9, 2500 μg/plate",33 Revertants/Plate
same,Mean Number of Revertants/Plate,"Escherichia coli WP2uvrA; WP2uvrA +S9, 78 μg/plate",18 Revertants/Plate
same,Mean Number of Revertants/Plate,"Escherichia coli WP2uvrA; WP2uvrA +S9, 156 μg/plate",17 Revertants/Plate
same,Mean Number of Revertants/Plate,"Escherichia coli WP2uvrA; WP2uvrA +S9, 313 μg/plate",23 Revertants/Plate
same,Mean Number of Revertants/Plate,"Escherichia coli WP2uvrA; WP2uvrA +S9, 625 μg/plate",48 Revertants/Plate
same,Mean Number of Revertants/Plate,"Escherichia coli WP2uvrA; WP2uvrA +S9, 1250 μg/plate",50 Revertants/Plate
same,Mean Number of Revertants/Plate,"Escherichia coli WP2uvrA; WP2uvrA +S9, 2500 μg/plate",50 Revertants/Plate
same,Mean Number of Revertants/Plate,"Escherichia coli WP2uvrA; WP2uvrA −S9, 78 μg/plate",18 Revertants/Plate
same,Mean Number of Revertants/Plate,"Escherichia coli WP2uvrA; WP2uvrA −S9, 156 μg/plate",24 Revertants/Plate
same,Mean Number of Revertants/Plate,"Escherichia coli WP2uvrA; WP2uvrA −S9, 313 μg/plate",26 Revertants/Plate
same,Mean Number of Revertants/Plate,"Escherichia coli WP2uvrA; WP2uvrA −S9, 625 μg/plate",29 Revertants/Plate
same,Mean Number of Revertants/Plate,"Escherichia coli WP2uvrA; WP2uvrA −S9, 1250 μg/plate",49 Revertants/Plate
same,Mean Number of Revertants/Plate,"Escherichia coli WP2uvrA; WP2uvrA −S9, 2500 μg/plate",71 Revertants/Plate
same,Change in revertant colonies,"Escherichia coli WP2uvrA; WP2uvrA, presence and absence of S9",significant increases
same,Precipitate or cytotoxicity in the Ames assay,[5]; single non-GLP assay,no precipitate or cytotoxicity at any concentration
same,Mutagenic potential,"[5]; with and without S9, non-GLP",genotoxic; also recorded: positive
same,Exposure to M50 metabolite relative to pretomanid,"[6]; all dose levels, both sexes",less than 10%
same,AUC(0-t),"[6]; female, CByB6F1 (wild-type), mouse, plasma, oral, 80 mg/kg/day, females, highest dose in the carcinogenicity study, read-out: Mean M50 AUC0-24",10200 ng·h/mL
same,Mouse M50 AUC0-24 as multiple of estimated human M50 AUC0-24,[6]; females,approximately 3 X
same,Mean M50 AUC0-24,"[6]; males, highest dose in the carcinogenicity study",4600 ng·h/mL
same,Mouse M50 AUC0-24 as multiple of estimated human M50 AUC0-24,[6]; males,approximately 1.5 X
